Test results from patent US20120282187A1 (BOEHRINGER INGELHEIM INTERNATIONAL GMBH, priority 2008, published 2012).
Read-outs that look alike come from different tables or passages of the source.

Experiments:
[1] = test system: patients with chronic atrial fibrillation; experiment: PETRO phase 2 12-week dose finding study; type: in vivo, human
From the text: Primary endpoints were bleeding events and changes in D-dimer. […] Minor bleeding was dose related.

[2] = Clinical pharmacokinetics and pharmacodynamics of dabigatran etexilate; type: in vivo
From the text: Ezekowitz M D, et al., Dabigatran with or without concomitant aspirin compared with warfarin alone in patients with nonvalvular atrial fibrillation (PETRO study), Am. […] The PETRO study is described below.
As noted above, management of warfarin therapy is complex, and failure to adequately monitor patients is associated with risk. […] It also interacts with many common foods, drugs and alcohol which alter its therapeutic effect, putting patients at risk of either a bleeding or thrombotic event. Therefore, warfarin therapy requires careful individualized dosing and frequent monitoring. The significant limitations of VKAs have created a need for an oral anticoagulant with a rapid onset of action, minimal drug interactions, and a predictable anticoagulation effect that needs no monitoring.
(§1) Peak levels are seen within 2-3 hours of oral administration. […] Steady-state is reached within 2-3 days with a twice daily regimen. […] The remainder undergoes conjugation with glucuronic acid to form acylglucuronides which are excreted primarily in the bile.

[3] = test system: cytochrome P-450 drug metabolizing enzymes; experiment: Cytochrome P-450 interaction; type: in vitro ADME
Experimental: as §1

[4] = Solid state and solubility properties; type: physicochemical
[5] = test system: patients with atrial fibrillation
Experimental: The PETRO-Ex study was conducted in 52 centers in the United States, Denmark, The Netherlands, and Sweden.
PETRO-Ex began while the PETRO study was ongoing and investigators were initially kept blinded to patient treatment group until PETRO was completed. Unblinding investigators to patient treatment was possible thereafter.
Data were summarized descriptively; no hypothesis was to be tested. Events were analyzed on the basis of the treatment at onset. Incidences were reported as of patients with events as well as normalized to 100 patient-years on the respective treatment.
Patients who were down titrated to 50 mg q.d. based on a glomerular filtration rate≦50 mL/min during PETRO were excluded from the long-term trial; patients down-titrated in other dose levels remained on the q.d. treatment at that dose.
The total exposure reflects both trials, PETRO and PETRO-Ex, together.

CCCCCCOC(=O)NC(=N)c1ccc(NCc2nc3cc(C(=O)N(CCC(=O)OCC)c4ccccn4)ccc3n2C)cc1 [Dabigatran etexilate, 1-methyl-2-[N-[4-(N-n-hexyloxycarbonylamidino)phenyl]aminomethyl]benzimidazol-5-ylcarboxylic acid-N-(2-pyridyl)-N-(2-ethoxycarbonylethyl)amides]
Major bleeding events ([1]; 300 mg b.i.d. plus ASA groups): 6% | major bleeding events, number ([1]; 300 mg b.i.d. plus ASA groups): Four | Minor bleeding ([1]; 50, 150, 300 mg b.i.d.): dose related | Elevated transaminases >3× upper limit of normal (ULN) ([1]; all dabigatran etexilate-treated patients): 0.9% | Elevated transaminases >3× upper limit of normal (ULN), number of patients ([1]; of 432 dabigatran etexilate-treated patients): 4 | effect of oral strong P-gp inhibitors verapamil, quinidine or amiodarone on dabigatran plasma concentrations ([2]; concomitant with dabigatran etexilate): elevate dabigatran plasma concentrations | food interactions ([2]; in vivo): no food interactions | onset of anticoagulant effect ([2]; time after dosing): one | metabolism by, induction or inhibition of cytochrome P-450 drug metabolizing enzymes [3]: not metabolized by and does not induce or inhibit | hygroscopicity [4]: hygroscopic | solubility in water [4]: sparingly soluble in water | ALT or AST >2xULN, number ([5]; 50 mg b.i.d.): 0 | ALT or AST >3xULN and Bili >2xULN within 30 days, number ([5]; 50 mg b.i.d.): 0 | ALT or AST >3xULN, number ([5]; 50 mg b.i.d.): 0 | ALT or AST >5xULN, number ([5]; 50 mg b.i.d.): 0 | Adverse Events leading to premature discontinuation, number ([5]; 50 mg b.i.d.): 5 | Adverse Events leading to premature discontinuation, rate ([5]; 50 mg b.i.d.): 21.3 per 100 patient-years | MI, number ([5]; 50 mg b.i.d.): 0 | Major Bleeds with aspirin, number ([5]; 50 mg b.i.d.): 0 | Major Bleeds without aspirin, number ([5]; 50 mg b.i.d.): 0 | Major Bleeds, number ([5]; 50 mg b.i.d.): 0 | Other MACE, number ([5]; 50 mg b.i.d.): 2 | Stroke and Systemic Thromboembolism, number ([5]; 50 mg b.i.d.): 3 | TIA, number ([5]; 50 mg b.i.d.): 0 | ALT or AST >2xULN, number ([5]; 50 mg q.d.): 0 | ALT or AST >3xULN and Bili >2xULN within 30 days, number ([5]; 50 mg q.d.): 0 | ALT or AST >3xULN, number ([5]; 50 mg q.d.): 0 | ALT or AST >5xULN, number ([5]; 50 mg q.d.): 0 | Adverse Events leading to premature discontinuation, number ([5]; 50 mg q.d.): 0 | MI, number ([5]; 50 mg q.d.): 0 | Major Bleeds with aspirin, number ([5]; 50 mg q.d.): 0 | Major Bleeds without aspirin, number ([5]; 50 mg q.d.): 0 | Major Bleeds, number ([5]; 50 mg q.d.): 0 | Other MACE, number ([5]; 50 mg q.d.): 0 | Stroke and Systemic Thromboembolism, number ([5]; 50 mg q.d.): 0 | TIA, number ([5]; 50 mg q.d.): 0 | ALT or AST >2xULN, number ([5]; 150 mg b.i.d.): 21 | ALT or AST >2xULN, rate ([5]; 150 mg b.i.d.): 3.1 per 100 patient-years | ALT or AST >3xULN and Bili >2xULN within 30 days, number ([5]; 150 mg b.i.d.): 3 | ALT or AST >3xULN and Bili >2xULN within 30 days, rate ([5]; 150 mg b.i.d.): 0.4 per 100 patient-years | ALT or AST >3xULN, number ([5]; 150 mg b.i.d.): 13 | ALT or AST >3xULN, rate ([5]; 150 mg b.i.d.): 1.9 per 100 patient-years | ALT or AST >5xULN, number ([5]; 150 mg b.i.d.): 7 | ALT or AST >5xULN, rate ([5]; 150 mg b.i.d.): 1.0 per 100 patient-years | Adverse Events leading to premature discontinuation, number ([5]; 150 mg b.i.d.): 67 | Adverse Events leading to premature discontinuation, rate ([5]; 150 mg b.i.d.): 9.8 per 100 patient-years | MI, number ([5]; 150 mg b.i.d.): 6 | Major Bleeds with aspirin, number ([5]; 150 mg b.i.d.): 11 | Major Bleeds with aspirin, rate ([5]; 150 mg b.i.d.): 8.7 per 100 patient-years | Major Bleeds without aspirin, number ([5]; 150 mg b.i.d.): 18 | Major Bleeds without aspirin, rate ([5]; 150 mg b.i.d.): 3.2 per 100 patient-years | Major Bleeds, number ([5]; 150 mg b.i.d.): 29 | Major Bleeds, rate ([5]; 150 mg b.i.d.): 4.2 per 100 patient-years | Major bleeding events ([5]; 150 mg b.i.d.): 4.2 % per year | Other MACE, number ([5]; 150 mg b.i.d.): 7 | Stroke and Systemic Thromboembolism, number ([5]; 150 mg b.i.d.): 7 | TIA, number ([5]; 150 mg b.i.d.): 1 | fatal major bleeds, number ([5]; 150 mg b.i.d.): 4 | ALT or AST >2xULN, number ([5]; 150 mg q.d.): 2 | ALT or AST >2xULN, rate ([5]; 150 mg q.d.): 3.4 per 100 patient-years | ALT or AST >3xULN and Bili >2xULN within 30 days, number ([5]; 150 mg q.d.): 0 | ALT or AST >3xULN, number ([5]; 150 mg q.d.): 0 | ALT or AST >5xULN, number ([5]; 150 mg q.d.): 0 | Adverse Events leading to premature discontinuation, number ([5]; 150 mg q.d.): 8 | Adverse Events leading to premature discontinuation, rate ([5]; 150 mg q.d.): 13.7 per 100 patient-years | MI, number ([5]; 150 mg q.d.): 0 | Major Bleeds with aspirin, number ([5]; 150 mg q.d.): 0 | Major Bleeds without aspirin, number ([5]; 150 mg q.d.): 3 | Major Bleeds without aspirin, rate ([5]; 150 mg q.d.): 6.5 per 100 patient-years | Major Bleeds, number ([5]; 150 mg q.d.): 3 | Major Bleeds, rate ([5]; 150 mg q.d.): 5.1 per 100 patient-years | Other MACE, number ([5]; 150 mg q.d.): 0 | Stroke and Systemic Thromboembolism, number ([5]; 150 mg q.d.): 3 | TIA, number ([5]; 150 mg q.d.): 0 | ALT or AST >2xULN, number ([5]; 300 mg b.i.d.): 4 | ALT or AST >2xULN, rate ([5]; 300 mg b.i.d.): 4.9 per 100 patient-years | ALT or AST >3xULN and Bili >2xULN within 30 days, number ([5]; 300 mg b.i.d.): 0 | ALT or AST >3xULN, number ([5]; 300 mg b.i.d.): 2 | ALT or AST >3xULN, rate ([5]; 300 mg b.i.d.): 2.4 per 100 patient-years | ALT or AST >5xULN, number ([5]; 300 mg b.i.d.): 1
